Calls of active or inactive are those of the source.
Columns and labels:
[1] = biological target: Melanocortin receptor 4 (Homo sapiens, UniProt P32245); format: functional, cell-based;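 also: Cell-based assay with luminescence read-out, confirmatory dose-response testing for agonist activity of biased ligands at MC4R; human U2OS cells with tagged receptor and beta-arrestin; potency of agonists that increase receptor coupling to beta-arrestin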
[2] = biological target: T1, Apoptotic protease-activating factor 1 (Homo sapiens, UniProt O14727); experiment: SAR analysis of small molecule Activators of Apaf-1 in a Fluorescent assay.; format: functional; settings: read-out: EC50_Mean;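 also: caspase-3 cleavage of fluorogenic Rh110 DEVD substrate downstream of apoptosome activation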
T1 sequence (O14727 whole entry): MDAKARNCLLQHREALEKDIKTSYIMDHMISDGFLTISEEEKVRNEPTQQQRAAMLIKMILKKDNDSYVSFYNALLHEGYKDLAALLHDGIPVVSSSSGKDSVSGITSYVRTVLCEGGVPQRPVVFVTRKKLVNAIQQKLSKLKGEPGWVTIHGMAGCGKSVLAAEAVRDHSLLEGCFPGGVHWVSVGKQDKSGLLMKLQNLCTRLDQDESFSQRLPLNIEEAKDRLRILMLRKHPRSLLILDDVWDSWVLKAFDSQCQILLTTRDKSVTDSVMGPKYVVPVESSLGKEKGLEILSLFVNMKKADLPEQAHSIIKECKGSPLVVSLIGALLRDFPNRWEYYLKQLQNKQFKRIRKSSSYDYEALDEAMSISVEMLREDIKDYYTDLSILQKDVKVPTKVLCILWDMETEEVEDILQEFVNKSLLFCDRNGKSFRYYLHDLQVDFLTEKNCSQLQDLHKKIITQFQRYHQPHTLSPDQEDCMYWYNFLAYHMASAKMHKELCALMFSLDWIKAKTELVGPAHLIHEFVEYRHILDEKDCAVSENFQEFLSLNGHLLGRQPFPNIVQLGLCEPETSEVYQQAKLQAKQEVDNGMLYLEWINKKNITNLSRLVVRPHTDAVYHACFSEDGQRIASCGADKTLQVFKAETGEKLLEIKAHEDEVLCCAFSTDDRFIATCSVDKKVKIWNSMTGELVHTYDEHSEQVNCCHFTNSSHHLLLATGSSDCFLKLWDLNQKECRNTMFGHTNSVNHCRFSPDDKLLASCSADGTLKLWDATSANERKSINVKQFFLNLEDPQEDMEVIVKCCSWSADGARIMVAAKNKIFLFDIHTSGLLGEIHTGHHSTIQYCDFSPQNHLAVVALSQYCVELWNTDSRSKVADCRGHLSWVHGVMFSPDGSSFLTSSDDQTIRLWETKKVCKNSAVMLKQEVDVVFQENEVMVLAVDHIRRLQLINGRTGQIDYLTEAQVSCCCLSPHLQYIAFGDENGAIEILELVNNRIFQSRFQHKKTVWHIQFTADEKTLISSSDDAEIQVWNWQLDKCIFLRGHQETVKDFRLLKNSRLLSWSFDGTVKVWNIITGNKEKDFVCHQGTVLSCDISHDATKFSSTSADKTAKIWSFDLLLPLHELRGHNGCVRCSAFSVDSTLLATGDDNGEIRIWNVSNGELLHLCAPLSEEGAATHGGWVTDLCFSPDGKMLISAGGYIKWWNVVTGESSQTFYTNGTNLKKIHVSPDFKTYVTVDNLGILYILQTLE

[3] = biological target: T2, Mitochondrial peptide methionine sulfoxide reductase (Bos taurus, UniProt P54149); format: functional;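 as to IC50: absorbance read-out, biochemical high-throughput dose-response screen for MsrA inhibitors, confirmatory; recombinant bovine MsrA coupled to E. coli TrxB with NADPH and selenocystamine; potency is for inhibitors of MsrA activity on DMSO substrate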
T2 sequence (P54149 whole entry): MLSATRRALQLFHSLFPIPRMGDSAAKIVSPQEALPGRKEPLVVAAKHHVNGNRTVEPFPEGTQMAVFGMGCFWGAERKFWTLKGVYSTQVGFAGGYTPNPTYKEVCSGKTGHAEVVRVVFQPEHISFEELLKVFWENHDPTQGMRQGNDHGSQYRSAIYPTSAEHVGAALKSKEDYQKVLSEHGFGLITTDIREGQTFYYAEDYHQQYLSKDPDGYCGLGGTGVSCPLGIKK

[4] = biological target: T3, Replicative DNA helicase DnaB (Mycobacterium tuberculosis, UniProt P9WMR3); experiment: DnaB intein splicing inhibitors, dose response, biochemical, cell-free fluorescence (AID 449749); format: functional
T3 sequence (P9WMR3 whole entry): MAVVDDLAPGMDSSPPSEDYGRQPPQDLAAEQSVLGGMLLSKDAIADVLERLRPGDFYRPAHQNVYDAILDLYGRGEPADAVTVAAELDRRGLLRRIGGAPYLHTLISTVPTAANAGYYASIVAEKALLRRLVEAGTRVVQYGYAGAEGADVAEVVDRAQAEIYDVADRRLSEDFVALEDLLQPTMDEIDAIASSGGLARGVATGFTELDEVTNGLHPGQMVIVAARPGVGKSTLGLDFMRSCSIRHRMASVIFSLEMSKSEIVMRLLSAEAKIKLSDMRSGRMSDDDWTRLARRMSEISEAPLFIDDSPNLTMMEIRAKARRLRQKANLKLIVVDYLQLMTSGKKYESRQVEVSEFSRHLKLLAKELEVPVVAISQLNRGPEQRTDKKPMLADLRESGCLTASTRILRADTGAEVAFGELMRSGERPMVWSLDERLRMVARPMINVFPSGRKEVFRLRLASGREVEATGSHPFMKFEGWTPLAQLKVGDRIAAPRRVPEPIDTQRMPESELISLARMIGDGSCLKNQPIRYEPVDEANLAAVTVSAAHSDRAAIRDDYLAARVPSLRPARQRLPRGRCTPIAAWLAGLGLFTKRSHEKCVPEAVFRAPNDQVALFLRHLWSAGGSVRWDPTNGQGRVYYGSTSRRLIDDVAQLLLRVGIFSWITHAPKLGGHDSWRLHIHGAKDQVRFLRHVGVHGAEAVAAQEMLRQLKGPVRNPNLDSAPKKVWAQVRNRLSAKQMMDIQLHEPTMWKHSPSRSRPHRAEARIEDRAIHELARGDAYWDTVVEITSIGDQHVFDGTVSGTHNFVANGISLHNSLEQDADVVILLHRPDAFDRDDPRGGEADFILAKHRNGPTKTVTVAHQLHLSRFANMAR

[5] = biological target: T2, Mitochondrial peptide methionine sulfoxide reductase; experiment: Absorbance-based biochemical high throughput dose response assay for activators of Methionine sulfoxide reductase A (MsrA).; format: functional
[6] = biological target: T4, Aryl hydrocarbon receptor (Homo sapiens, UniProt P35869); experiment: Luminescence-based cell-based high throughput dose response assay for activators of the Aryl Hydrocarbon Receptor (AHR). [Related pubchem assays: 2796 (Primary screen (AHR activators in singlicate)), 2845 (Confirmation screen (AHR activators in triplicate)), 434939 (Counterscreen (PXR activators in triplicate)), 2804 (Summary (AHR activators))]; format: ADME
T4 sequence (P35869 whole entry): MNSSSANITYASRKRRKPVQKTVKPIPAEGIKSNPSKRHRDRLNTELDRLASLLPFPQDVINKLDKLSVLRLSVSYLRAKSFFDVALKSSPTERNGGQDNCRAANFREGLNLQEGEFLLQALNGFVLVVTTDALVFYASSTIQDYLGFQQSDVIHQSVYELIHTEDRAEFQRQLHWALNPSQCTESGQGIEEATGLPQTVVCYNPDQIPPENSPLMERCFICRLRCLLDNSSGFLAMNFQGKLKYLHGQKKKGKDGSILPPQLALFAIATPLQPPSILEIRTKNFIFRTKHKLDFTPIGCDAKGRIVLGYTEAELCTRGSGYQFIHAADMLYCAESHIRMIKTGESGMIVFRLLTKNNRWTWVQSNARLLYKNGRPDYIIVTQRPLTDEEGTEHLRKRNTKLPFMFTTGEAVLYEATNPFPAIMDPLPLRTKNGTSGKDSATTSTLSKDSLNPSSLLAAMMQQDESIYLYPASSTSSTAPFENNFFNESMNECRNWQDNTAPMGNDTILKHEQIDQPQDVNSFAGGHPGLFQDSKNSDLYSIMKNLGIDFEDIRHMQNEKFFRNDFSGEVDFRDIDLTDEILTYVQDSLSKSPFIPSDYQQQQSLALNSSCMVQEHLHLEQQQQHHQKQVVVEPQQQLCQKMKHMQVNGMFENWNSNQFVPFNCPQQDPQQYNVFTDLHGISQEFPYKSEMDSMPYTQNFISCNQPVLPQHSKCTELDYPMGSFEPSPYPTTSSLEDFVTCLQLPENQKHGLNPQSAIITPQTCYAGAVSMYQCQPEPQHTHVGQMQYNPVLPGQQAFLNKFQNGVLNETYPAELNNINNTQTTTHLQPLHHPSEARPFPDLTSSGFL

[7] = biological target: T5, Protein RecA (Mycobacterium tuberculosis, UniProt P9WHJ3); experiment: Fluorescence Cell-Free Homogeneous Dose Retest to Identify Inhibitors of RecA-Intein Splicing Activity. [Related pubchem assays (depositor defined):AID2097, AID2223, AID489010, AID492950]; format: functional
T5 sequence (P9WHJ3 whole entry): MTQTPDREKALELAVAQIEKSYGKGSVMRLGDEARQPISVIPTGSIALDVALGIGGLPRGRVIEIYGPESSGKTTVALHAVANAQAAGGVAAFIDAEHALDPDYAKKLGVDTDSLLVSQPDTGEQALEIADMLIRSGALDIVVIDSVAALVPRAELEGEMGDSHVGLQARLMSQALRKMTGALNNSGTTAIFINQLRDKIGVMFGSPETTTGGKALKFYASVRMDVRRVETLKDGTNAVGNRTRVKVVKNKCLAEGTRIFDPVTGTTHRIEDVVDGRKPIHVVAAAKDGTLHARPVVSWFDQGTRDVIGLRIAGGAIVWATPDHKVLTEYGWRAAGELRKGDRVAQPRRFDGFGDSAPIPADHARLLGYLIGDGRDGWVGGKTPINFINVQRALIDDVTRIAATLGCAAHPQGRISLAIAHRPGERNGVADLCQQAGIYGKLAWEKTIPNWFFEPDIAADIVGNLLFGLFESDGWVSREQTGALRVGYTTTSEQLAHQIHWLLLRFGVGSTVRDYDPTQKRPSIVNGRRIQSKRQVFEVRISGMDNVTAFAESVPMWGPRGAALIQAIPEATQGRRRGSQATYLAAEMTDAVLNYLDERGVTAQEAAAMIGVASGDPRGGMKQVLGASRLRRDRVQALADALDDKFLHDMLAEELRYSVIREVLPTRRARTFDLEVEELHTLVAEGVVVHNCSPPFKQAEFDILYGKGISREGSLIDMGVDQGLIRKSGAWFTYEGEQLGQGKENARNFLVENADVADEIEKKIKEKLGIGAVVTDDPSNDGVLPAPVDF

Sequence of Melanocortin receptor 4 (P32245 whole entry): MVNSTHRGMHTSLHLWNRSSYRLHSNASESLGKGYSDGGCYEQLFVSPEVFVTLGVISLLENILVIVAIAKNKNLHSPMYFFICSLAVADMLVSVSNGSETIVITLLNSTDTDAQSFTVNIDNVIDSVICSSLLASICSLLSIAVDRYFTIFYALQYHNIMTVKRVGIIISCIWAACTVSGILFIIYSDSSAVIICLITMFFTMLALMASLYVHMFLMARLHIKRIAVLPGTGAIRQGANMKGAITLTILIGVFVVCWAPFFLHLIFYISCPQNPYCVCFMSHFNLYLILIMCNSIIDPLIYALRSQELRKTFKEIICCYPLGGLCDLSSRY

COc1ccc(NC(=O)Nc2nc(C(N)Cc3ccc(C(F)(F)F)cc3)cs2)cc1 (configuration not stated)
EC50 [1]: > 89.2 µM (inactive)

Cc1cccc(C)c1N1C(=O)CC2(CC(c3ccc4c(c3)OCCO4)=NO2)C1=O (configuration not stated)
EC50 [2]: > 100 µM (inactive)

O=C1/C(=N/c2ccc(O)cc2)C(Cl)=C(O)c2ccccc21
IC50 [3]: 155 µM (inactive) | AC50 [4]: 3.36 µM (active) | EC50 [5]: > 104 µM (inactive) | EC50 [6]: > 1.13 µM (active) | EC50 [7]: 3.48 µM (active)

Source: ChEMBL document CHEMBL1201862, “PubChem BioAssay data set” (2004)
